Tested on: JNK1
Assay: Epitope-tagged JNK1 protein kinase activity in transfected COS cells
Assay type: cell-based
Details: 10 nM EGF or 100 nM TPA
Protocol: JNK1 protein kinase activity was detected in the immune-complex. Immunecomplex kinase assays using either M2 immunoprecipitates or purified JNK1, JNK-46, and ERK1 or ERK2 were performed at 30° C. for 20 mins using 3 μg of substrate, 20 μM ATP and 5 μCi of [γ-^32P]ATP in 30 μl of kinase buffer (25 mM Hepes (pH 7.6), 20 mM MgCl2, 20 mM β-glycerophosphate, 20 mM p-nitrophenyl phosphate, 0.1 mM Na orthovanadate, 2 mM DTT). The reactions were terminated with Laemmli sample buffer and the products were resolved by SDS-PAGE (12% gel). JNK1 protein activity was also measured after SDS-PAGE by the in-gel kinase assay with the substrate GST-cJun(1-79) as described by Hibi, et al., supra, (1993). Solid-phase protein kinase assays were performed as described by Hibi, et al., supra, (1993). Clarified cell extracts were incubated with GST fusion proteins immobilized on GSH-agarose beads. After 3 hours at 4° C., the beads were washed extensively and bound JNK1 was detected by the addition of [γ-^32P]ATP. The reaction was terminated after 10 mins at 30° C. and the products were resolved by SDS-PAGE. The incorporation of [^32P]phosphate was visualized by autoradiography and quantitated with a phosphorimager and ImageQuant software (Molecular Dynamics Inc., Sunnyvale, Calif.). The methods used for phosphopeptide mapping (Boyle, et al., Cell 64:573-584, 1991) and phosphoamino acid analysis (Alvarez, et al., J. Biol. Chem 266:15227-15285, 1991) were described previously.
Epitope-tagged JNK1 was expressed in COS cells. Control experiments were performed using mock-transfected cells. After 48 hours, the cells were treated either without or with 100 nM TPA, 10 nM EGF, or 80 J/m^2 UV-C and incubated for 1 hr. The cells were lysed in RIPA buffer and the JNK1 proteins were isolated by immunoprecipitation with the M2 monoclonal antibody. JNK1 protein kinase activity was measured after SDS-PAGE using an in-gel kinase assay with the substrate GST-cJun(1-79) polymerized into the gel.
COS-1 cells were maintained in. Dulbecco's modified Eagle's medium supplemented with 5% […] (Gibco-BRL). Metabolic labeling with [^32P]phosphate was performed by incubation of cells in phosphate-free modified Eagle's medium (Flow Laboratories Inc.) supplemented with 0.1% fetal bovine serum and 1 mCi/ml [^32P]orthophosphate (Dupont-NEN). COS cells were treated with 10 nM EGF or 100 nM thorbol myristate acetate. The cells were then incubated for defined times at 37° C. prior to harvesting and measurement of JNK1 protein kinase activity. The data are presented as arbitrary units. […] In contrast, exposure to UV radiation caused a marked increase in JNK1 activity.

## EGF: EGF, used at 10 nM to treat COS cells (NSDSECPLSHDGYCLHDGVCMYIEALDKYACNCVVGYIGERCQYRDLKWWELR; UniProt P01133 971-1023, looked up)
  JNK1 activation: low level of JNK1 activation
  duration of JNK1 activation: approximately 2 hours
